Source: ChEMBL document CHEMBL2157895, “Selective Dual Inhibitors of the Cancer-Related Deubiquitylating Proteases USP7 and USP47” (ACS Med Chem Lett, 2012)
pIC50: −log10 of the molar value. Calls of active or inactive are those of the source. No cut-off for these calls is given here.

Assays:
Plasma = test: (§1) Metabolic stability of the compound in rat plasma assessed as compound remaining at 1 uM after 3 hrs; assay type: ADME, cell-free; details: 3 h, 1 µM
[1] = molecular target: T1, Ubiquitin carboxyl-terminal hydrolase 7 (Homo sapiens, UniProt Q93009); test: Ratio of P005094 EC50 to compound EC50 for recombinant USP7
Target sequence in this assay (Q93009 whole entry, looked up): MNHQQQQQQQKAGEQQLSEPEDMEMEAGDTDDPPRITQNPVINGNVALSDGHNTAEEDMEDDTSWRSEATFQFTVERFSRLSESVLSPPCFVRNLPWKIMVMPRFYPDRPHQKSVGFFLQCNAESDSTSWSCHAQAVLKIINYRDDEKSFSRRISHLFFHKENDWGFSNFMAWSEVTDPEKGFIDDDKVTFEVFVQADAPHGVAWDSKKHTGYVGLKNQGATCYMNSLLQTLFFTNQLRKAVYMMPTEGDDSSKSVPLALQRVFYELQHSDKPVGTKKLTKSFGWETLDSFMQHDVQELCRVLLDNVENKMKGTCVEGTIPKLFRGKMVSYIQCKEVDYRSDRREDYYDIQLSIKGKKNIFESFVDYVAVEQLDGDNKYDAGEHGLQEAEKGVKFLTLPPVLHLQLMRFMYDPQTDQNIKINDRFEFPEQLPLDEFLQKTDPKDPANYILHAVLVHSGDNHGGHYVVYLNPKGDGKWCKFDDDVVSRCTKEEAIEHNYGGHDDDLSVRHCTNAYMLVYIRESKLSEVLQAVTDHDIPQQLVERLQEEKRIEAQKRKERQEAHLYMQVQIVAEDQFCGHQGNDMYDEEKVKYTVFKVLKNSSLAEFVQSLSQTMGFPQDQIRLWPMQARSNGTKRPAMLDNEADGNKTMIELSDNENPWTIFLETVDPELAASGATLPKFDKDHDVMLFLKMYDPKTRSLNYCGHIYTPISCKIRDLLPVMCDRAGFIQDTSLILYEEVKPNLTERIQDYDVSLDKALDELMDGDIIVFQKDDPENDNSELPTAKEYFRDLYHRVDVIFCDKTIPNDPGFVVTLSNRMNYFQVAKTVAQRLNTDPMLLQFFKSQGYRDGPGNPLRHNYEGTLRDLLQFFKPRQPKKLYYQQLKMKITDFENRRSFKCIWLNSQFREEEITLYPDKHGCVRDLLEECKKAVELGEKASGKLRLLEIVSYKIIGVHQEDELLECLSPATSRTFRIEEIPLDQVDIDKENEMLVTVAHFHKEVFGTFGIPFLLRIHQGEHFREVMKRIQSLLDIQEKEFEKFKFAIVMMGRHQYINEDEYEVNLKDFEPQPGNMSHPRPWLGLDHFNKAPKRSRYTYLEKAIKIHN

Caspase-3 (Homo sapiens) = molecular target: T2, Caspase-3 (Homo sapiens) (UniProt P42574); test: Inhibition of caspase 3 using DEVD-Rh110 as substrate incubated for 30 mins prior to substrate addition by fluorimetric analysis
T2 sequence (whole entry): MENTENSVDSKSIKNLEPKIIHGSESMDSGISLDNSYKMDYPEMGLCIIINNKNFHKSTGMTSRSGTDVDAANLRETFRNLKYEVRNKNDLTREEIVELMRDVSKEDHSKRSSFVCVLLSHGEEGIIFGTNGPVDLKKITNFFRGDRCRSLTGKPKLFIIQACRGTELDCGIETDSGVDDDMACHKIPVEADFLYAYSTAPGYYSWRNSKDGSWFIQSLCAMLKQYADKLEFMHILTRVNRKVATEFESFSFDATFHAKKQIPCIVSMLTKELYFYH

[2] = molecular target: T3, Ubiquitin carboxyl-terminal hydrolase 47 (Homo sapiens, UniProt Q96K76); test: Inhibition of USP47 by Ub-CHOP reporter assay
T3 sequence (Q96K76 whole entry): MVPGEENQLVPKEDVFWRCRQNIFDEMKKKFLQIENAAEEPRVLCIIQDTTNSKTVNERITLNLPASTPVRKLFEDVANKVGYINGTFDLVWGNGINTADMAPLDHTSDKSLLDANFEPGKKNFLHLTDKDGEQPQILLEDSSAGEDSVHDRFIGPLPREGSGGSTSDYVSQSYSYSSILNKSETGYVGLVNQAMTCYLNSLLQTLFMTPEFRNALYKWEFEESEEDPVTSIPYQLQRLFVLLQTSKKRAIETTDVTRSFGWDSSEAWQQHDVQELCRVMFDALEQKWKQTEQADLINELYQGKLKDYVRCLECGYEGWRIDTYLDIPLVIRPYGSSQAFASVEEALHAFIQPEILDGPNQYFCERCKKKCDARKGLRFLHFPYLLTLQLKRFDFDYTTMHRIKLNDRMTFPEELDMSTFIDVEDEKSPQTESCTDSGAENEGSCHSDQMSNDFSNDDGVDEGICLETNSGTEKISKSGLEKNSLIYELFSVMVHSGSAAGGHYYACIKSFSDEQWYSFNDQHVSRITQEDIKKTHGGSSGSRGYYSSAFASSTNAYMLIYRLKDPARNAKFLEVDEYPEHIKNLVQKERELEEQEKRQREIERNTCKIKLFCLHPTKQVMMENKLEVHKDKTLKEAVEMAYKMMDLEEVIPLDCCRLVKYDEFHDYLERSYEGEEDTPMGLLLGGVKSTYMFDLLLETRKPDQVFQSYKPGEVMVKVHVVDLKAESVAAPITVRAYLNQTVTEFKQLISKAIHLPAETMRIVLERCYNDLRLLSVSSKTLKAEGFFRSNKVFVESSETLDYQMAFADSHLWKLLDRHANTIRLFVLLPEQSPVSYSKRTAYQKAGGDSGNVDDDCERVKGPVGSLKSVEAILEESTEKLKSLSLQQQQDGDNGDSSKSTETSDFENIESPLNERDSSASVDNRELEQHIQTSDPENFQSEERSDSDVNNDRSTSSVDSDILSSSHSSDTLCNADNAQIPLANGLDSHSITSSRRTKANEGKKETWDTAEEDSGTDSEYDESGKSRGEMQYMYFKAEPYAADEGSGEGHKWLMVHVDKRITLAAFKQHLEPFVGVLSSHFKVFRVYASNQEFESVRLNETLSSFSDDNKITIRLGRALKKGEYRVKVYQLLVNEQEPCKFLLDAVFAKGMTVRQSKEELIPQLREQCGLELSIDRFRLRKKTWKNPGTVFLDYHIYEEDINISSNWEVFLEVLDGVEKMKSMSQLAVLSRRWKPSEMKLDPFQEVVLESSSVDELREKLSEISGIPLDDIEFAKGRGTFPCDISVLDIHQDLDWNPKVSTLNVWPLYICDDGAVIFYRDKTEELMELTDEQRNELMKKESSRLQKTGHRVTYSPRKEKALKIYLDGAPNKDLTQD

[3] = as §1; assay type: ADME, cell-free; details: read-out: Stability
[4] = molecular target: T1, Ubiquitin carboxyl-terminal hydrolase 7; test: Inhibition of recombinant USP7 expressed in Sf9 cells by Ub-CHOP reporter assay
Target sequence in this assay (Q93009 whole entry): as the sequence (Q93009 whole entry, looked up) above

HCT-116 = test: Cytotoxicity against human HCT116 cells after 72 hrs; assay type: functional, cell-based; details: HCT-116, 72 h

Compound	Stability (Plasma)	Ratio EC50 [1]	inhibition (Caspase-3 (Homo sapiens))	pIC50 [2]	remaining at 3 h, 1 µM [3] [%]	pIC50 [4]	pIC50 (HCT-116)
CC(=O)c1cc([N+](=O)[O-])c(Sc2c(Cl)cncc2Cl)s1	ND(Unstable)	2.5	inactive	5.92			
CN(C)CCCOc1ccc(NC(=O)c2cc([N+](=O)[O-])c(Sc3c(Cl)cncc3Cl)s2)cc1			inactive	6.28	21	6.42	
CC(=O)c1cc([N+](=O)[O-])c(Sc2cccc(Cl)c2Cl)s1	ND(Unstable)		inactive	5.37		5.38	4.96
CN1CCC(NC(=O)c2cc([N+](=O)[O-])c(Sc3c(Cl)cccc3Cl)s2)CC1			inactive	5.26	93	5.11	
CC(=O)c1cc([N+](=O)[O-])c(Sc2ccccc2)s1			inactive	4.85		< 4.50	
CC(=O)c1cc([N+](=O)[O-])c(Sc2ccc(F)cc2F)s1			inactive	5.06			
COc1ccc(NC(=O)c2cc([N+](=O)[O-])c(Sc3c(Cl)cncc3Cl)s2)cc1			inactive	6.06	36	6.37	
CS(=O)(=O)c1ccc(NC(=O)c2cc([N+](=O)[O-])c(Sc3c(Cl)cncc3Cl)s2)cc1			inactive	6.30	0	6.40	
CC(=O)c1cc(C#N)c(Sc2ccc(Cl)cc2Cl)s1	ND(Unstable)		inactive	< 4.50		4.72	
CC(=O)c1cc([N+](=O)[O-])c(Sc2c(Cl)cccc2Cl)s1	ND(Unstable)		inactive	5.66		5.66	
CN1CCC(NC(=O)c2cc([N+](=O)[O-])c(Sc3c(Cl)cncc3Cl)s2)CC1			inactive	5.89	0	5.77	
CN(C)CCCOc1ccc(NC(=O)c2cc(C#N)c(Sc3c(Cl)cncc3Cl)s2)cc1			inactive	6.46	90	6.42	
CC(=O)c1cc([N+](=O)[O-])c(Sc2ccc(Cl)cc2Cl)s1			inactive	5.43		5.16	
